Source: PMC10709440, “High-throughput ligand profile characterization in novel cell lines expressing seven heterologous insect olfactory receptors for the detection of volatile plant biomarkers” (Scientific Reports, 2023)
Where “and” joins values, the source holds several entries; their conditions need not be identical. Identical values can stand only once. Like-named read-outs stand apart in the source and are kept apart here.

How the values were obtained:
[1] = biological target: T1, Drosophila OR13a (Drosophila melanogaster, UniProt Q9VXL0); assay: Calcium ion fluorescence (GCaMP6) assay, OR13a stable HEK293 cell line; assay type: cell-based; details: for DF norm AVERAGE OR13a: normalized fluorescence change, values below 0.05 threshold given as 0
T1 construct: expressed in transfected cells
T1 sequence (Q9VXL0 1-418): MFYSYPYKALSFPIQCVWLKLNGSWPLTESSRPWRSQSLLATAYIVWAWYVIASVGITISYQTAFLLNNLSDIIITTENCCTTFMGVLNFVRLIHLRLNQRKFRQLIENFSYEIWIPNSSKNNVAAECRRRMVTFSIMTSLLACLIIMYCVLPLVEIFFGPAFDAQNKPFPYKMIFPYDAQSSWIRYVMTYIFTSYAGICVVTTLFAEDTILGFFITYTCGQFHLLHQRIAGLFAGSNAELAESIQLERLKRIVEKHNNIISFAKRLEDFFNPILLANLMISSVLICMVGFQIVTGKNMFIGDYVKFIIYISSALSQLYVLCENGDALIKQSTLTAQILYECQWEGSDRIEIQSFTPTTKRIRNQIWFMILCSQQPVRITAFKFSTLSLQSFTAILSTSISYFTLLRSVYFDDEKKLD
T1 sequence (Q9VNB5 1-486 partner): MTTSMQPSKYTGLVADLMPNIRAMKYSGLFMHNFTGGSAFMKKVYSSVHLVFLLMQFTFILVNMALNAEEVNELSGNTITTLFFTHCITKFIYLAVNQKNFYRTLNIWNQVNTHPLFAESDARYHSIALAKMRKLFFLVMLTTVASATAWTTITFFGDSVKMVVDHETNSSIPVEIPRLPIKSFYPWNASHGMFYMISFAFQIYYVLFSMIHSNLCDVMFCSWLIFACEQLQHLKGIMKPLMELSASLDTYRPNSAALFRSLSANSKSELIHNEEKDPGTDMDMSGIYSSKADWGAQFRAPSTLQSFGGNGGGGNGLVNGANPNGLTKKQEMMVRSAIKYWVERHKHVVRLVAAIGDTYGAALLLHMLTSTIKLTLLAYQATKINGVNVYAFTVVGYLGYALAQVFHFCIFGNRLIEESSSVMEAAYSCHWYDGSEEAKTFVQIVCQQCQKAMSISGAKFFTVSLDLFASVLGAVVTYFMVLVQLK
Procedure: (§1) These VUAA1 normalized ∆F values were used to compare the different receptors and ligands.
(§2) The concentration-dependent effect of the reference ligands on their cognate cell lines was examined in more detail. Twelve different ligand concentrations were measured on each cell line in an overall 0.01 μM to 100 μM concentration range with 5 repetitions with three technical replicates each time.
(§3) Twelve thousand to 18,000 cells were plated into each well of a black wall, transparent bottom 384-well microplate (Greiner) 48 h or 72 h before the measurements and were simultaneously treated with 1 μg/mL doxycycline. […] The plate has 24 columns, thus we could record responses in up to eight different cell lines in each plate. On the day of the experiment, the growth medium was replaced with 20 µL assay buffer/well (140 mM NaCl, 5 mM KCl, 2 mM CaCl2, 1 mM MgCl2, 5 mM HEPES-Na, 20 mM glucose, pH 7.3, 340 mOsm). […] Baseline fluorescence (F0) was recorded for 5 s, after which 7 µL VOC buffer (140 mM NaCl, 5 mM KCl, 2 mM CaCl2, 1 mM MgCl2, 5 mM HEPES-Na, 31 mM glucose, 0.1% DMSO, pH 7.3, 340 mOsm) was injected into each well in one row and the fluorescence response was recorded for an additional 30 s, at a rate of one read/sec. VOC solutions (VOC buffer with 4× concentration of the final measured VOC concentration, 9 µL/well was injected) were measured on the same wells in a second round with the same protocol. Each individual concentration of a specific VOC sample was recorded in three wells for the same cell line on the same microplate. The raw data were exported in xls file format, F0 and FMAX values, and the fluorescence intensity changes (∆F) were calculated in Excel (Microsoft) (Supplementary file Data summary.xlsx) using the following equation: ΔF=FMAX-F0/F0 (see also Fig. 1C). On each plate, we recorded the response of each cell line to 50 µM VUAA1. The average of these ∆F values of each cell line were used to calculate the VUAA1-normalized values for the rest of the plate, by dividing VOC response ∆F values by the average VUAA1 response ∆F value of the corresponding OR cell line. Each VOC-OR combination was measured three times as technical replicates. […] The average of these replicates were used as one ∆F and VUAA1-normalized ∆F in the following analysis.
(§4) In the next rows we tested the reference VOCs (or other VOCs known to activate the corresponding cell lines), in order to test if all cell lines are responsive. The remaining rows were used to test VOCs with unknown effect.
(§5) The recorded FMAX, F0, ∆F, VUAA1-normalized ∆F values, as well as the OR name, the name of the tested sample, and the final concentration for each well were copied into supplementary file Data summary.xlsx, that was used to summarize all the plates recorded. Here, the averages of the measurements were calculated for each receptor-VOC-concentration combination.

[2] = biological target: T2, Drosophila OR47a (Drosophila melanogaster, UniProt P81921); assay: Calcium ion fluorescence (GCaMP6) assay, OR47a stable HEK293 cell line; assay type: cell-based; details: for Average response: OR47a cell line, mean of biological replicates; for DF norm AVERAGE OR47a: normalized fluorescence change, values below 0.05 threshold given as 0
T2 construct: expressed in transfected cells
T2 sequence (P81921 1-385): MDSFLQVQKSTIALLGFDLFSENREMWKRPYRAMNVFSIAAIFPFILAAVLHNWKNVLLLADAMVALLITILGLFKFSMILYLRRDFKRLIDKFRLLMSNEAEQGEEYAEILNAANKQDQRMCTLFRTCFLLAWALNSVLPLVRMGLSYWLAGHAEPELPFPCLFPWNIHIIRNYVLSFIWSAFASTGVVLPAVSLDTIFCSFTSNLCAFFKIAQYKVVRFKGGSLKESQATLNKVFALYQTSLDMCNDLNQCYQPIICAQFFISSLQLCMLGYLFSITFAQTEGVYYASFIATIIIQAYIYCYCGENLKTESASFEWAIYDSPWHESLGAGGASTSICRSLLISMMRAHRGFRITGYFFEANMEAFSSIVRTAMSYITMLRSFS
T2 sequence (Q9VNB5 1-486 partner): T1 sequence (Q9VNB5 1-486 partner)
Procedure: as §1, §2, §3, §4, §5

[3] = HEK293, read-out: OR47a Average response (VUAA1-normalized)
[4] = HEK293, read-out: OR47a response (VUAA1-normalized response)

C=CC(O)CCCCC (centres unmarked) [1-octen-3-ol]
EC50 ([1]; AVERAGE EC50, the 12th table, corresponds to average EC50, given with 95% confidence interval): 1440 nM | EC50 ([1]; EC50, AVERAGE of replicate fits, the 12th table, N 5): 1440 nM | EC50 ([1]; EC50, AVERAGE of replicate fits, the 12th table, arithmetic average, N 5): 1630 nM | EC50 ([1]; EC50, OR13a cell line, fitted Hill equation, Hill coefficient constrained to 1, maximal response max 1): 1440 nM | EC50 ([1]; EC50, fitted average curve, the 12th table, fit to the average curve, n 0.854956): 1410 nM | EC50 ([1]; EC50, fitted parameter per biological replicate, the 12th table, OR13a D-R 1-octen-3-ol, individual replicate fits, MIN 0, n 1): 2370 nM and 2300 nM and 753 nM and 1970 nM and 761 nM | EC50 ([1]; EC50, fitted parameter per biological replicate, the 12th table, individual replicate fits): 2370 nM and 2300 nM and 753 nM and 1970 nM and 761 nM | activation at 1 µM ([1]; HEK293, read-out: OR13a Average response (VUAA1-normalized), 1 μM VOC, 50 μM VUAA1 = 1, responses not exceeding 0.05 considered 0): 31% | activation at 10 µM ([1]; HEK293, read-out: OR13a Average response (VUAA1-normalized), 10 μM VOC, 50 μM VUAA1 = 1, responses not exceeding 0.05 considered 0): 41% | activation at 100 µM ([1]; HEK293, read-out: OR13a Average response (VUAA1-normalized), 100 μM VOC, 50 μM VUAA1 = 1, responses not exceeding 0.05 considered 0): 38% | activation at 1 µM ([1]; HEK293, read-out: OR13a response (VUAA1-normalized response), VOC concentration 1 μM): 31% | activation at 10 µM ([1]; HEK293, read-out: OR13a response (VUAA1-normalized response), VOC concentration 10 μM): 41% | activation at 100 µM ([1]; HEK293, read-out: OR13a response (VUAA1-normalized response), VOC concentration 100 μM): 38% | Emax ([1]; HEK293, read-out: VUAA1 normalized MAX response): 46% | DF norm AVERAGE OR13a ([1]; concentration 1): 0.3125 | DF norm AVERAGE OR13a ([1]; concentration 10): 0.4133 | DF norm AVERAGE OR13a ([1]; concentration 100): 0.3797 | dose-response, response per biological replicate ([1]; the 12th table, VOC concentration 0.15): 0 (2×) and 0.1313 | dose-response, AVERAGE response ([1]; the 12th table, VOC concentration 0.15, N 3): 0.04376 | dose-response, response per biological replicate ([1]; the 12th table, VOC concentration 0.3): 0 (3×) and 0.1249 and 0.1272 | dose-response, AVERAGE response ([1]; the 12th table, VOC concentration 0.3, N 5): 0.0504 | dose-response, response per biological replicate ([1]; the 12th table, VOC concentration 0.6): 0 (2×) and 0.1801 and 0.08156 and 0.213 | dose-response, AVERAGE response ([1]; the 12th table, VOC concentration 0.6, N 5): 0.09494 | dose-response, response per biological replicate ([1]; the 12th table, VOC concentration 1.25): 0.2071 and 0.2793 and 0.1886 and 0.3516 | dose-response, AVERAGE response ([1]; the 12th table, VOC concentration 1.25, N 4): 0.2566 | dose-response, response per biological replicate ([1]; the 12th table, VOC concentration 2.5): 0.2646 and 0.1888 and 0.4175 and 0.197 and 0.3823 | dose-response, AVERAGE response ([1]; the 12th table, VOC concentration 2.5, N 5): 0.2901 | dose-response, response per biological replicate ([1]; the 12th table, VOC concentration 5): 0.42 and 0.3195 and 0.4159 and 0.2978 and 0.4731 | dose-response, AVERAGE response ([1]; the 12th table, VOC concentration 5, N 5): 0.3853 | dose-response, response per biological replicate ([1]; the 12th table, VOC concentration 10): 0.4322 and 0.4316 and 0.4215 and 0.2626 and 0.4446 | dose-response, AVERAGE response ([1]; the 12th table, VOC concentration 10, N 5): 0.3985 | dose-response, response per biological replicate ([1]; the 12th table, VOC concentration 20): 0.4616 and 0.4143 and 0.5545 and 0.335 and 0.5659 | dose-response, AVERAGE response ([1]; the 12th table, VOC concentration 20, N 5): 0.4662 | dose-response, response per biological replicate ([1]; the 12th table, VOC concentration 40): 0.4507 and 0.4868 and 0.5125 and 0.286 and 0.5426 | dose-response, AVERAGE response ([1]; the 12th table, VOC concentration 40, N 5): 0.4557 | dose-response, response per biological replicate ([1]; the 12th table, VOC concentration 60): 0.3021 and 0.4978 and 0.4725 and 0.5843 | dose-response, AVERAGE response ([1]; the 12th table, VOC concentration 60, N 4): 0.4642 | dose-response, response per biological replicate ([1]; the 12th table, VOC concentration 80): 0.4797 and 0.3236 and 0.407 and 0.4017 and 0.4897 | dose-response, AVERAGE response ([1]; the 12th table, VOC concentration 80, N 5): 0.4203 | dose-response, response per biological replicate ([1]; the 12th table, VOC concentration 100): 0.3778 and 0.3442 and 0.2898 and 0.4501 | dose-response, AVERAGE response ([1]; the 12th table, VOC concentration 100, N 4): 0.3654 | AVERAGE MAX ([1]; the 12th table, average of replicate fits, N 5): 0.459 | MAX, fitted average curve ([1]; the 12th table, fit to the average curve, n 0.854956): 0.4618 | MAX, fitted parameter per biological replicate ([1]; the 12th table, individual replicate fits): 0.5125 and 0.4135 and 0.4717 and 0.37 and 0.5273 | activation at 1 µM [2, 3]: 0% | activation at 10 µM [2, 3]: 3% | activation at 100 µM [2, 3]: 14% | activation at 1 µM [2, 4]: 0% | activation at 10 µM [2, 4]: 0% | activation at 100 µM [2, 4]: 14% | Average response ([2]; odorant cc. 1 µM): 0.00 | Average response ([2]; odorant cc. 10 µM): 0.0268 | Average response ([2]; odorant cc. 100 µM): 0.14 | DF norm AVERAGE OR47a ([2]; concentration 1): 0 | DF norm AVERAGE OR47a ([2]; concentration 10): 0 | DF norm AVERAGE OR47a ([2]; concentration 100): 0.1389
